Reference: patent US8987320B2, “Solid salt forms of a pyrrole substituted 2-indolinone” (Zoetis LLC, priority 2005, dated 2015)
Values joined by “and” are separate entries in the source; they are usually repeats but may differ in a detail not shown here. Equal entries are not always repeated. Where two headings read alike, the source gives them in different places.

Experiments:
[1] = Wettability with water; format: physicochemical
[2] = tested on: recurrent mast cell tumors; experiment: Multicenter, placebo-controlled, double blind, randomized study in dogs with recurrent mast cell tumors; format: in vivo
Procedure: Purpose. The effectiveness of Compound I phosphate oral tablets for the treatment of mast cell tumors in client-owned animals that had recurrent measurable disease after surgery was evaluated in a masked, negative controlled study. The study evaluated every-other-day dosing of Compound I phosphate at 3.25 mg free base equivalents (FBE)/kg body weight on disease response using modified (RECIST) criteria of response. The presence or absence of c-kit mutation in mast cell tumors was evaluated as a covariate in this study. For decision-making purposes, the duration of the study was 6 weeks.
One-hundred-fifty-three (153) dogs were randomized in a ratio of 4:3 into one of two treatment groups: T01 (Placebo in which n=65) and T02 (Compound I phosphate in which n=88). Ten veterinary oncology practices in the United States were selected and enrolled cases. For enrollment, dogs had to have recurrent mast cell tumor (at least one target lesion had to have a minimum longest diameter of 20 mm)±regional lymph node involvement. A maximum of three target lesions (measurable mast cell tumors) and all non-target lesions (all remaining lesions, measurable or un-measurable) were identified at baseline by two evaluators. Efficacy was based on the objective response (complete response or partial response) at the week 6 visit where the mean of the two evaluators sum of the longest diameter of target lesions (Mean Sum LD) was compared to the Baseline Mean Sum LD for calculation of percent reduction or increase. Assessment of non-target lesions was subjective. A complete response (CR) was defined as the disappearance of all target and non-target lesions and the appearance of no new lesions; a partial response (PR) was defined as at least a 30% decrease in the Mean Sum LD of target lesions compared to the Baseline Mean Sum LD and non-progression of non-target lesions and appearance of no new lesions. Tissue samples from the tumor and distant normal skin were collected prior to randomization and submitted for the assessment of c-kit mutation status.

[3] = Dynamic moisture sorption gravimetry (DMSG) of salts of Compound I; format: physicochemical
Procedure: Dynamic Moisture Sorption Gravimetry (DMSG).
DMSG isotherm was collected on a temperature controlled atmospheric microbalance. Approximately 10 mg samples were placed in the sample pan of the balance. The humidity was sequentially varied from room relative humidity (RH) to 0% RH and was then increased to 90% RH followed by a decrease of RH to 0% again in 3% RH steps. The mass was then measured every two minutes. The RH was stepped to the next target value when change of the sample mass was less than 0.5 μg in 10 min. The Visual Basic program dmsgscn2.exe was used to control the data collection and export the information to an Excel spreadsheet.

[4] = Compound I phosphate plasma levels in dogs with mast cell tumors (LC/MS/MS); format: in vivo, canine; details: for concentration at 8 h / Cmax at 8 h: dog, plasma, oral; for Cmax at 8 h: dogs
Procedure: Study Design. This study was a proof of target modulation study in dogs with recurrent or metastatic grade MCTs. Patients received a single oral dose of Compound I phosphate at 3.25 mg/kg. Using a 6-mm punch biopsy instrument, samples were obtained from the tumor before Compound I phosphate administration and 8 hours (h) after treatment. When possible, multiple biopsies were taken. Each sample was flash frozen in liquid nitrogen and stored at −70° centigrade (C) before analysis. Blood samples for analysis of plasma levels of Compound I phosphate were obtained at the same time as tumor biopsies (see below).
Compound I Phosphate Plasma Levels. Blood samples were drawn from the jugular vein and placed into a red-top serum collection vacuum glass tube. Specimens were kept at room temperature, allowed to clot, centrifuged at 1500 rpm at 4° C. for 10 minutes, transferred to cryovials, and plasma frozen at −70° C. pending analysis. Briefly, plasma samples (20 μl) or Compound I phosphate standards in canine plasma were mixed with methanol (200 μl) containing DL-propranolol hydrochloride (internal standard) in a 96-well polypropylene plate (Orochem Technology, Westmont, Ill.). The plate was mixed by vortex for 1 min, and the samples were centrifuged for 10 min at 4000 rpm. Ten microliters of the supernatant were injected onto the LC/MS/MS system, in which separation occurred on a BataBasic C-18 (5 μm, 100×4.6 mm) reverse-phase high-performance liquid chromatography column (Keystone Scientific, Foster City, Calif.). The amount of Compound I phosphate and the internal standard in each canine plasma sample were quantified based on standard curves generated using known amounts of compound ranging from 0.2 to 500 ng/ml.

[5] = Estimation of solubility in various solvents by step-wise solvent addition; format: physicochemical
Procedure: Samples of 1-2 mg of Compound I phosphate (lot 35282-CS-51) were transferred to 10 mL glass vials (tared) and were weighed (accurate to 0.1 mg). Solvents were added to the vials (one solvent to each vial) in a step-wise fashion, with 0.5 mL of solvent added at each step. Solvents used were buffer (pH=2), buffer (pH=5), water, methanol, tetrahydrofuran (THF), acetonitrile, and acetone. After each addition, the vial was capped and shaken. The dissolution of solid was visually observed. If no obvious dissolution was observed, more solvent was added immediately. If dissolution was apparent, the vial was left on the bench for at least 30 minutes before the next addition of solvent. This step was repeated until no crystals were visible against a black and a white background. The solubility was then bracketed by dividing the weight of the compound by the final volume and the volume before the last addition. If a solid remained after the addition of 10 mL of solvent, the solubility was expressed as less than the weight divided by the final volume. If the solid was completely dissolved after the first addition of solvent, the solubility was expressed as greater than the weight divided by the solvent volume. All experiments were conducted at room temperature.

Cc1[nH]c(/C=C2\C(=O)Nc3ccc(F)cc32)c(C)c1C(=O)NCCN1CCCC1 [Compound I phosphate]
wettability with water compared with Compound I free base [1]: much better
animals that experienced progressive disease ([2]; 3.25 mg FBE/kg every other day, 6 weeks, 29/86): 33.7%
objective response rate (complete or partial response) ([2]; 3.25 mg FBE/kg every other day, oral tablets, week 6, 33/86): 38.3%
objective response, dogs positive for the c-kit mutation ([2]; T02 group, 12/20): 60%
objective response, dogs negative for the c-kit mutation ([2]; T02 group, 21/64): 32.8%
% water at 80% RH ([3]; 80% RH): ~1%
water at 80 percent humidity ([3]; 80 percent relative humidity): about 1%
concentration at 8 h ([4]; 3.25 mg/kg, single dose at 3.25 mg/kg, 8 h, read-out: average plasma concentration for dogs that did not score for KIT target modulation): 137 ± 36 ng/mL
concentration at 8 h ([4]; 3.25 mg/kg, single dose at 3.25 mg/kg, 8 h, read-out: average plasma concentration for dogs with evidence of KIT target modulation): 79.2 ± 41 ng/mL
Cmax at 8 h ([4]; 3.25 mg/kg, single dose at 3.25 mg/kg, read-out: plasma concentration at 8 h (approximately Cmax), average): 105 ± 9 ng/mL
Cmax at 8 h ([4]; 3.25 mg/kg, single dose at 3.25 mg/kg, read-out: plasma concentration at 8 h (approximately Cmax), range over dogs): 33.2 to 186 ng/mL
Plasma Compound I phosphate postdose ([4]; individual dogs, single oral dose 3.25 mg/kg, 8 h after dosing, 3.25 mg/kg): 0.3 ng/mL and 83.5 ng/mL and 98.0 ng/mL and 116.0 ng/mL and 121.0 ng/mL and 186.0 ng/mL and 103.0 ng/mL and 111.0 ng/mL and 158.0 ng/mL and 65.3 ng/mL and 95.4 ng/mL and 119.0 ng/mL and 81.0 ng/mL and 33.2 ng/mL
dogs with plasma levels considered to be in the therapeutic range ([4]; single dose at 3.25 mg/kg, 8 h): Twelve
Estimated solubility ([5]; Acetone, 23° C.): <<<0.2 mg/mL
Estimated solubility ([5]; Acetonitrile, 23° C.): <<<0.13 mg/mL
Estimated solubility ([5]; THF, 23° C.): <<<0.19 mg/mL
solubility ([5]; buffer (pH 2), pH 2, at pH 2 or lower, read-out: solubility): > 3000 µg/mL
solubility ([5]; buffer (pH 2, HCl and KCl), 23 °C, pH 2, aqueous buffer, thermodynamic from solid, buffer (pH = 2, HCl and KCl), 23° C., read-out: Estimated solubility): 5900 to 7400 µg/mL
Estimated solubility ([5]; methanol, 23° C.): ~0.14 mg/mL
solubility ([5]; water, 23 °C, pH 4.91, water, thermodynamic from solid, water, 23° C., final solution pH 4.91, read-out: Estimated solubility): ~290 µg/mL
